The subject of the experiment is polyoma virus transformed BHK21/c13 cells, line S100T1. The experiment is described as follows: Collocation inhibition test: clonal growth in sparsely and densely seeded areas of a cell density gradient of S100T1 cells in soft agar (Exp 13, 17, 19-26).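 For Clonal growth, H high density area of cell gradient, High: grades rise with clonal growth.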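 For Clonal growth, H high density area of cell gradient, Low: grades rise with clonal growth.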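 For Clonal growth, H high density area of cell gradient, Medium: grades rise with clonal growth.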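 For Clonal growth, L low density area of cell gradient, High: grades rise with clonal growth and minus or plus-minus means none.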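 For Clonal growth, L low density area of cell gradient, Low: grades rise with clonal growth and minus or plus-minus means none.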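 For Clonal growth, L low density area of cell gradient, Medium: grades rise with clonal growth and minus or plus-minus means none.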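 For all read-outs here: soft agar cultures in 24-well plates with a cell density gradient in the top layer, compounds applied from DMSO stocks, clonal growth scored in sparse versus dense areas.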 The settings on record: for Clonal growth, H high density area of cell gradient, High / Clonal growth, L low density area of cell gradient, High / Clonal growth, H high density area of cell gradient, Low / Clonal growth, L low density area of cell gradient, Low / Clonal growth, H high density area of cell gradient, Medium / Clonal growth, L low density area of cell gradient, Medium / Effect on cell cloning in soft agar: preliminary results; for Clonal growth, H high density area of cell gradient, High / Clonal growth, L low density area of cell gradient, High / Clonal growth, H high density area of cell gradient, Low / Clonal growth, L low density area of cell gradient, Low / Clonal growth, H high density area of cell gradient, Medium / Clonal growth, L low density area of cell gradient, Medium: Exp 13-18, 21-26; for Effect on cell cloning in soft agar: in words; for Clonal growth after 48 hours incubation: L: low cell density part of the gradient.

[1] abbreviates: Exp 19, 120000 S100T1 cells/well.

Entries after “also recorded” stand apart in the source; their conditions may differ. Starred links: 1 amine or outer side, 2 acyl side, 3 side chain; linkers in the order of their positions; H or OH if unused. Positions of bridges follow the written chain, without caps; N, C: chain ends. Non-standard residues stand in square brackets, D forms with d. Residues, ends and D or L forms follow the SMILES beside them. Chains are numbered I, II in the order given. Actinocin(9to1) = Cc1c2oc3c(C)ccc(C(=O)[*:1])c3nc-2c(C(=O)[*:2])c(N)c1=O; NMeV = CN[C@H](C(=O)O)C(C)C; Sar = CNCC(=O)O

Procedure: The cells should be grown in a top agar layer to avoid growth on the bottom surface. […] Both densely seeded and sparsely seeded areas were photographed.
Cells: The polyoma virus transformed offspring of BHK21/c13, S100T1, was grown on 75 cm^2 flasks on Eagles medium with 5% foetal calf serum. […] Foetal calf serum (0.7 ml) was added to each harvest. After low speed centrifugation the supernatant was discarded and the cells were dispersed in 1 ml FBS.
The concentration of ultra low gelling temperature agarose (Sigma) of the top agar layer with cells was also 0.8%. […] The addition of cells was performed at the same side of the wells in order to create similar cell density gradients. Finally the top layer agar was consolidated in the refrigerator.
After that it was incubated at 37 degrees in 5% CO2 atmosphere.
Agar cultures were prepared in Falcon 24 well tissue culture plate. Each well contained two agar layers of 0.3 ml.
Agar cultures were prepared in wells of Falcon 24 well tissue culture plate. Each contained two agar layers of 0.3 ml. […] The medium contained Eagles MEM and 10% foetal bovine serum (FBS).
The compounds were first solved in DMSO in 20 mM concentration and then diluted in medium. The top layer needed 60-90 minutes in the refrigerator for solidification before incubation in 37° C. with 5% CO2 atmosphere.
In this experiment the inhibitor was added to the bottom layer in order to get an easier way for making the cell density gradient. One side of the Falcon 24 well plate was elevated 12 degrees in the refrigerator for 60-90 minutes to solidify the bottom layer in an oblique position When then solidifying the cell containing top soft agar layer in horizontal position, the cell gradient constantly became good across the well. […] Another 90 minutes were spent in the refrigerator to consolidate the soft agar layer with cells in a horizontal position. Both layers contained 0.8% agarose, Eagles MEM and 10% FBS.
Tilting the plate 12 degrees when solidifying the bottom layer with the drug and casting the top layer with cells horizontally made a stable cell gradient.
The indicated compounds were added to soft agar cultures of the polyoma virus transformed cell line S100T1 of BHK21/c13 cells (Table 1). Agar cultures were prepared in wells of a Falcon 24 well tissue culture plate. The wells contained two agar layers of 0.3 ml. […] The bottom medium was identical, but without cells.
The compounds were first solved in DMSO in 20 mM concentration and then diluted in bottom medium. The agar layers needed 60-90 minutes in the refrigerator for consolidation before incubation at 37° C. in 5% CO2 atmosphere.

Turning to `Cc1c2oc3c(C)ccc(C(=O)N[C@@H]4C(=O)N[C@H](C(C)C)C(=O)N5CCC[C@H]5C(=O)N(C)CC(=O)N(C)[C@@H](C(C)C)C(=O)O[C@@H]4C)c3nc-2c(C(=O)N[C@@H]2C(=O)N[C@H](C(C)C)C(=O)N3CCC[C@H]3C(=O)N(C)CC(=O)N(C)[C@@H](C(C)C)C(=O)O[C@@H]2C)c(N)c1=O` [Actino-mycin D, Actinomycin D, reference compound] (I: T[dV]P[Sar][NMeV] / II: T[dV]P[Sar][NMeV]; ester I:1-I:C, II:1-II:C; linker I:N-II:N via Actinocin(9to1)), the “Effect on cell cloning in soft agar” value is recorded as “Good, but not complete inhibition”. The “Effect on clonal growth and toxicity” value (Exp 21, 117000 S100T1 cells/well) is reported as “good, but probably no complete inhibition of clonal growth at low toxicity; also recorded: no absolute clonal inhibition of sparsely seeded cells; also recorded: There was signs of good, but not complete”. In addition, the Clonal growth result (Exp 21, 117000 cells per well, Low concentration (see figure), H: area with high cell density) is given as “++”. Besides, the Clonal growth result (Exp 21, High concentration, H: area with high cell density) is reported as “+”. Also, the Clonal growth result (Exp 21, Low concentration, L: area with low cell density) was “+”. In addition, the Clonal growth result (Exp 21, Medium concentration, H: area with high cell density) is recorded as “++”. The Clonal growth result (Exp 21, Medium concentration, L: area with low cell density) was “(+)”. Under “high concentration”, the “Clonal growth, H high density area of cell gradient, High” value was “+” and the “Clonal growth, L low density area of cell gradient, High” value is listed as “((+))”. Under “low concentration”, the “Clonal growth, H high density area of cell gradient, Low” value is listed as “++” and the “Clonal growth, L low density area of cell gradient, Low” value is recorded as “+”. Moreover, for the setting “medium concentration”, the “Clonal growth, H high density area of cell gradient, Medium” value was “++” and the “Clonal growth, L low density area of cell gradient, Medium” value is listed as “(+)”.

For the compound `O=P1(N(CCCl)CCCl)NCCCO1` (stereo not drawn) [Cyclophosphamide, reference compound], the “Effect on cell cloning in soft agar” value was “When unactivated growth increased in”. Moreover, under setting [1], the “Effect on growth in densely and sparsely seeded areas” value was “no inhibition of growth in any of these areas; also recorded: No inhibition of clonal cell growth was”; the “Effect on growth in densely seeded areas” value is given as “stimulation of clonal growth probably was significant”. Further, the “Effect on growth in densely and sparsely seeded areas” value (Exp 19, 120000 S100T1 cells/well, listed as cyclophosphamide) was “obtained, but cyclophosphamide stimulated”. For the same compound, the “Clonal growth after 48 hours incubation” value (Exp 19, high concentration) was “++”. In addition, for the setting “Exp 19, low concentration”, the “Clonal growth after 48 hours incubation” value is listed as “++”. The “Clonal growth after 48 hours incubation” value (Exp 19, medium concentration) was “++”. In addition, for the setting “high concentration”, the “Clonal growth, H high density area of cell gradient, High” value was “++” and the “Clonal growth, L low density area of cell gradient, High” value is given as “++”. Where the note is “low concentration”, the “Clonal growth, H high density area of cell gradient, Low” value was “++(+)” and the “Clonal growth, L low density area of cell gradient, Low” value is listed as “++”. Where the note is “medium concentration”, the “Clonal growth, H high density area of cell gradient, Medium” value was “++(+)” and the “Clonal growth, L low density area of cell gradient, Medium” value was “++”.

Take “Somatotropin: growth hormone tested for clonal stimulation”: under “Exp 25, 48 hours incubation”, the “Effect on clonal growth” value is “seemed to create some large colonies”. Also, the Clonal growth result is on record as “++” (Experiment 25, H: area with high cell density, High concentration, after 48 hours incubation); “++(+)” (Experiment 25, H: area with high cell density, Low concentration, after 48 hours incubation); “++(+)” (Experiment 25, H: area with high cell density, Medium concentration, after 48 hours incubation); “++” (Experiment 25, L: area with low cell density, High concentration, after 48 hours incubation); “++(+)” (Experiment 25, L: area with low cell density, Low concentration, after 48 hours incubation); “++(+)” (Experiment 25, L: area with low cell density, Medium concentration, after 48 hours incubation). Also, the “Clonal growth, H high density area of cell gradient, High” value (high concentration) is “++”. The “Clonal growth, L low density area of cell gradient, High” value (high concentration) was “++”. Also, the “Clonal growth, H high density area of cell gradient, Low” value (low concentration) is “++(+)”. For the same compound, for the setting “low concentration”, the “Clonal growth, L low density area of cell gradient, Low” value is “++(+)”. In addition, where the note is “medium concentration”, the “Clonal growth, H high density area of cell gradient, Medium” value is listed as “++(+)”. The “Clonal growth, L low density area of cell gradient, Medium” value (medium concentration) is “++(+)”.

These data come from US20060121449A1, “Method for selection of compounds which inhibit clonal cell growth and use thereof” (priority 2002, published 2006).
